In PubChem BioAssay (NCI):
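Briefly, cells in 96-well plates were exposed to five compound concentrations for 48 h, and endpoints were estimated by linear interpolation. At the TGI there is no net growth.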

Tests used:
Assay in all cases: growth of human tumour cells (NCI), 48 h
SNB-75 CNS = test system: SNB-75 CNS
HCT-15 colon = test system: HCT-15 colon
OVCAR-3 ovarian = test system: OVCAR-3 ovarian
HOP-92 NSCLC = test system: HOP-92 NSCLC
SW-620 colon = test system: SW-620 colon
SK-MEL-28 melanoma = test system: SK-MEL-28 melanoma
SR leukemia = test system: SR leukemia
KM12 colon = test system: KM12 colon
MDA-N = test system: MDA-N
SN12C renal = test system: SN12C renal
M14 melanoma = test system: M14 melanoma
LOX IMVI melanoma = test system: LOX IMVI melanoma
ACHN renal = test system: ACHN renal
NCI-H460 lung = test system: NCI-H460 lung
UACC-257 melanoma = test system: UACC-257 melanoma
K-562 leukemia = test system: K-562 leukemia
BT-549 breast = test system: BT-549 breast
HCT-116 colon = test system: HCT-116 colon
HCC-2998 colon = test system: HCC-2998 colon
OVCAR-5 ovarian = test system: OVCAR-5 ovarian
T-47D breast = test system: T-47D breast
TK-10 renal = test system: TK-10 renal
MDA-MB-231 breast = test system: MDA-MB-231 breast
EKVX NSCLC = test system: EKVX NSCLC
CAKI-1 renal = test system: CAKI-1 renal
UACC-62 melanoma = test system: UACC-62 melanoma
RXF 393 renal = test system: RXF 393 renal
MDA-MB-435 = test system: MDA-MB-435
IGROV1 ovarian = test system: IGROV1 ovarian
A498 renal = test system: A498 renal
SF-539 CNS = test system: SF-539 CNS
HT29 colon = test system: HT29 colon
SK-OV-3 ovarian = test system: SK-OV-3 ovarian
SF-295 CNS = test system: SF-295 CNS
UO-31 renal = test system: UO-31 renal
NCI-H23 lung = test system: NCI-H23 lung
COLO 205 colon = test system: COLO 205 colon
MCF7 breast = test system: MCF7 breast
HS 578T breast = test system: HS 578T breast
SK-MEL-2 melanoma = test system: SK-MEL-2 melanoma
A549 NSCLC = test system: A549 NSCLC
PC-3 prostate = test system: PC-3 prostate
SK-MEL-5 melanoma = test system: SK-MEL-5 melanoma
U251 CNS = test system: U251 CNS
NCI-H226 lung = test system: NCI-H226 lung
OVCAR-4 ovarian = test system: OVCAR-4 ovarian
786-0 renal = test system: 786-0 renal
CCRF-CEM leukemia = test system: CCRF-CEM leukemia
HOP-62 NSCLC = test system: HOP-62 NSCLC
OVCAR-8 ovarian = test system: OVCAR-8 ovarian
NCI/ADR-RES ovarian = test system: NCI/ADR-RES ovarian
MOLT-4 leukemia = test system: MOLT-4 leukemia
SF-268 CNS = test system: SF-268 CNS
NCI-H522 lung = test system: NCI-H522 lung
DU-145 prostate = test system: DU-145 prostate
RPMI-8226 leukemia = test system: RPMI-8226 leukemia
HL-60(TB) leukemia = test system: HL-60(TB) leukemia
MALME-3M melanoma = test system: MALME-3M melanoma
SNB-19 CNS = test system: SNB-19 CNS

## CCOC(=O)C1=CNC(C(=O)OCC)C1c1cccn1-c1ccc(Cl)cc1[N+](=O)[O-] (configuration not stated)
SNB-75 CNS
  TGI: 51.4 µM
HCT-15 colon
  TGI: 46.6 µM
OVCAR-3 ovarian
  TGI: 30.3 µM
HOP-92 NSCLC
  TGI: 51.7 µM
SW-620 colon
  TGI: > 100 µM
SK-MEL-28 melanoma
  TGI: 53.1 µM
SR leukemia
  TGI: 61.8 µM
KM12 colon
  TGI: 47.5 µM
MDA-N
  TGI: 54.8 µM
SN12C renal
  TGI: 37.8 µM
M14 melanoma
  TGI: 44.9 µM
LOX IMVI melanoma
  TGI: 29.4 µM
ACHN renal
  TGI: > 100 µM
NCI-H460 lung
  TGI: 61.3 µM
UACC-257 melanoma
  TGI: 70 µM
K-562 leukemia
  TGI: 85.9 µM
BT-549 breast
  TGI: 61.2 µM
HCT-116 colon
  TGI: 35.7 µM
HCC-2998 colon
  TGI: 51.9 µM
OVCAR-5 ovarian
  TGI: 60.3 µM
T-47D breast
  TGI: > 100 µM
TK-10 renal
  TGI: 54.9 µM
MDA-MB-231 breast
  TGI: 27.2 µM
EKVX NSCLC
  TGI: 75.9 µM
CAKI-1 renal
  TGI: 58.6 µM
UACC-62 melanoma
  TGI: 35 µM
RXF 393 renal
  TGI: 36.7 µM
MDA-MB-435
  TGI: 58.7 µM
IGROV1 ovarian
  TGI: 29.9 µM
A498 renal
  TGI: > 100 µM
SF-539 CNS
  TGI: 30.8 µM
HT29 colon
  TGI: 30.8 µM
SK-OV-3 ovarian
  TGI: > 100 µM
SF-295 CNS
  TGI: 31.3 µM
UO-31 renal
  TGI: > 100 µM
NCI-H23 lung
  TGI: > 100 µM
COLO 205 colon
  TGI: > 100 µM
MCF7 breast
  TGI: 60.6 µM
HS 578T breast
  TGI: 50.5 µM
SK-MEL-2 melanoma
  TGI: 34.8 µM
A549 NSCLC
  TGI: > 100 µM
PC-3 prostate
  TGI: 68.9 µM
SK-MEL-5 melanoma
  TGI: 30.3 µM
U251 CNS
  TGI: 41.1 µM
NCI-H226 lung
  TGI: 50 µM
OVCAR-4 ovarian
  TGI: 98.3 µM
786-0 renal
  TGI: 45.9 µM
CCRF-CEM leukemia
  TGI: 66.1 µM
HOP-62 NSCLC
  TGI: 53.6 µM
OVCAR-8 ovarian
  TGI: 90.6 µM
NCI/ADR-RES ovarian
  TGI: 62.5 µM
MOLT-4 leukemia
  TGI: 59.5 µM
SF-268 CNS
  TGI: 55.5 µM
NCI-H522 lung
  TGI: 35.2 µM
DU-145 prostate
  TGI: > 100 µM

## CC(C(=O)c1ccccc1)C(c1ccccc1)N1CCOCC1 (configuration not stated)
SNB-75 CNS
  TGI: > 100 µM
HCT-15 colon
  TGI: > 100 µM
OVCAR-3 ovarian
  TGI: > 100 µM
HOP-92 NSCLC
  TGI: > 100 µM
SW-620 colon
  TGI: > 100 µM
SK-MEL-28 melanoma
  TGI: > 100 µM
SR leukemia
  TGI: > 100 µM
KM12 colon
  TGI: > 100 µM
MDA-N
  TGI: > 100 µM
SN12C renal
  TGI: > 100 µM
M14 melanoma
  TGI: > 100 µM
LOX IMVI melanoma
  TGI: > 100 µM
ACHN renal
  TGI: > 100 µM
NCI-H460 lung
  TGI: > 100 µM
UACC-257 melanoma
  TGI: > 100 µM
RPMI-8226 leukemia
  TGI: > 100 µM
K-562 leukemia
  TGI: > 100 µM
BT-549 breast
  TGI: > 100 µM
HCT-116 colon
  TGI: > 100 µM
OVCAR-5 ovarian
  TGI: > 100 µM
T-47D breast
  TGI: > 100 µM
TK-10 renal
  TGI: > 100 µM
HL-60(TB) leukemia
  TGI: > 100 µM
MDA-MB-231 breast
  TGI: > 100 µM
MALME-3M melanoma
  TGI: > 100 µM
EKVX NSCLC
  TGI: > 100 µM
CAKI-1 renal
  TGI: > 100 µM
UACC-62 melanoma
  TGI: > 100 µM
RXF 393 renal
  TGI: > 100 µM
SNB-19 CNS
  TGI: > 100 µM
MDA-MB-435
  TGI: > 100 µM
IGROV1 ovarian
  TGI: > 100 µM
A498 renal
  TGI: > 100 µM
SF-539 CNS
  TGI: > 100 µM
HT29 colon
  TGI: > 100 µM
SK-OV-3 ovarian
  TGI: > 100 µM
SF-295 CNS
  TGI: > 100 µM
NCI-H23 lung
  TGI: > 100 µM
COLO 205 colon
  TGI: > 100 µM
MCF7 breast
  TGI: > 100 µM
HS 578T breast
  TGI: > 100 µM
SK-MEL-2 melanoma
  TGI: > 100 µM
A549 NSCLC
  TGI: > 100 µM
PC-3 prostate
  TGI: > 100 µM
SK-MEL-5 melanoma
  TGI: > 100 µM
U251 CNS
  TGI: > 100 µM
NCI-H226 lung
  TGI: > 100 µM
OVCAR-4 ovarian
  TGI: > 100 µM
786-0 renal
  TGI: > 100 µM
CCRF-CEM leukemia
  TGI: > 100 µM
HOP-62 NSCLC
  TGI: > 100 µM
OVCAR-8 ovarian
  TGI: > 100 µM
NCI/ADR-RES ovarian
  TGI: > 100 µM
MOLT-4 leukemia
  TGI: > 100 µM
SF-268 CNS
  TGI: > 100 µM
NCI-H522 lung
  TGI: > 100 µM
DU-145 prostate
  TGI: > 100 µM
